Experimental data reported in patent publication US20160045529A1, “Pharmaceutical Compositions Containing Palmitoylethanolamide And Cytidine-Diphosphocholine And Methods Of Treatment Therewith” (EPITECH GROUP S.R.L., priority 2014, published 2016).

Key:
[1] = test system: middle cerebral artery occlusion in rats; experiment: Middle cerebral artery occlusion by ligation in rats, infarction area; assay type: in vivo; conditions: MCAo, suspended in CMC 1.5%; for % Infarction Area: Only CMC = 100.00; for Infarction Area in mm^2: Only CMC control 38.5
Excerpt: Brain Res. 2012 Oct 5;1477:45-58]. Using such a method the maximum ineffective dose of the two substances, ultramicronized palmitoylethanolamide and cytidinediphosphocholine, administered separately orally suspended in carboxymethyl cellulose at 1.5% was initially sought. In the maximum ineffective doses found, the two substances were then mixed and administered together again suspended in CMC at 1.5%. The results obtained are collected in the following table 1 and the data of the synergic association between PEA and Citicoline are presented in FIGS. 1A-1B and FIGS. 2A-2B. FIGS. 1A-1B show images of coronal sections after occlusion of the middle cerebral artery (MCAo) in the absence (FIG. 1A), or in the presence of the combined treatment described above (FIG. 1B). FIG. 2 highlights the detected measurements of the infarctual area (FIG. 2A) and volume (FIG. 2B) in the absence or in the presence of the treatment.

[2] = test system: stroke model from ligation of the middle cerebral artery; conditions: preclinical, optimal dose of 10 mg/kg; cited from earlier work
cranial trauma model = conditions: preclinical, optimal dose of 10 mg/kg; cited from earlier work
[3] = test system: dementia from damage due to beta amyloid; conditions: preclinical, optimal dose of 10 mg/kg; cited from earlier work

For `C[N+](C)(C)CCOP(=O)(O)OP(=O)([O-])OC[C@H]1O[C@@H](n2ccc(N)nc2=O)[C@H](O)[C@@H]1O` [Citicoline, Cytidine-diphosphocholine], the “% Infarction Area” value ([1]; 50 mg/kg orally) was 99.48% and the “Infarction Area in mm^2” value ([1]; 50 mg/kg orally) was 38.3 mm^2.

In the case of `CCCCCCCCCCCCCCCC(=O)NCCO` [PEA-um, palmitoylethanolamide], the “% Infarction Area” value ([1]; 1 mg/kg orally) is reported as 99.22% and the “Infarction Area in mm^2” value ([1]; 1 mg/kg orally) is reported as 38.2 mm^2.

For `CCCCCCCCCCCCCCCC(=O)NCCO` [palmitoylethanolamide], the “effect in the stroke model” value [2] is given as “substantial effect”, the “effect in the cranial trauma model” value (cranial trauma model) is given as “substantial effect” and the “effect in the model of dementia from damage due to beta amyloid” value [3] is given as “substantial effect”.
